From US20250304952A1, “DNA ELEMENT RESPONSIVE TO EXTRACHROMOSOMAL DNA IN CANCER CELLS” (The Board of Trustees of the Leland Stanford Junior …, priority 2021, published 2025)

Columns and labels:
ecDNA hubs in COLO320-DM = test: ecDNA clustering by interphase DNA FISH, autocorrelation g(r); type: cell-based, human; conditions: 6 hours
From the text: The Oligopaint FISH probe libraries were constructed as described previously 51 Each oligo consists of a 40 nucleotide (nt) homology to the hg19 genome assemble designed from the algorithm developed from the laboratory of Dr. Ting Wu (https://oligopaints.hms.harvard.edu/). Each library subpool consists of a unique sets of primer pairs for orthogonal PCR amplification and a 20 nt T7 promoter sequence for in vitro transcription and a 20 nt region for reverse transcription. Individual Oligopaint probes were generated by PCR amplification, in vitro transcription, and reverse transcription, in which ssDNA oligos conjugated with ATTO488 and ATTO647 fluorophores were introduced during the reverse transcription step. The Oligopaint covered genomic regions (hg19) used in this study are as follows: chr8: 116967673-118566852 (hg19_COLO_nonecDNA_1.5Mbp), chr8: 127435083-129017969 (hg19_COLO_ecDNA_1.5Mbp), chr8: 128729248-128831223 (hg19_PC3_ecDNA1_100 kb). A ssDNA oligo pool was ordered and synthesized from Twist Bioscience (San Francisco, CA). 15 mm #1.5 round glass coverslips (Electron Microscopy Sciences) were pre-rinsed with anhydrous ethanol for 5 min, air dried, and coated with L-poly lysine solution (100 μg/mL) for at least 2 hours. Fully dissociated ColoDM320 or PC3 cells were seeded onto the coverslips and recovered for at least 6 hours before experiments. Cells were fixed with 4% (v/v) methanol free paraformaldehyde diluted in 1×PBS at room temperature for 10 min. Then cells were washed 2× with 1×PBS and permeabilized in 0.5% Triton-X100 in 1×PBS for 30 min. After 2× wash in 1×PBS, cells were treated with 0.1M HCl for 5 min, followed by 3× washes with 2×SSC and 30 min incubation in 2×SSC+0.1% Tween20 (2×SSCT)+50% (v/v) formamide (EMD Millipore, cat #S4117). […]
To analyze the clustering of ecDNAs, we applied the autocorrelation function as described previously58 in Matlab (2019). g(r) estimates the probability of detecting another ecDNA signal at increasing distances from the viewpoint of an index ecDNA signal and is equal to 1 for a uniform, random distribution. Specifically, the pair auto-correlation function g(r^→) was calculated by the fast Fourier transform (FFT) method described by the equations below.
N(r^→) is the auto-correlation of a mask matrix that has the value of 1 inside the nucleus used for normalization. […] Autocorrelation functions were calculated first by converting the Cartesian coordinates to polar coordinates by Matlab cart2pol( ) function, binning by radius and by averaging within the assigned bins. […]

[1] = tested on: MYC mRNA in COLO320-DM cells; test: MYC RNA measured by RT-qPCR in COLO320-DM; type: cell-based, human; conditions: 500 nM, 6 hours
Description: Cells were then treated for 6 hours with 500 nM JQ1 in DMSO unless otherwise indicated (Sigma-Aldrich SML1524) or an equivalent volume of DMSO.
RNA was extracted using RNeasy Plus mini Kit (QIAGEN 74136). Purified RNA was quantified by Nanodrop (Thermo Fisher). For RT-qPCR, 50 ng of RNA, 1× Brilliant II qRT-PCR mastermix with 1 μL RT/RNase block (Agilent 600825), and 200 nM forward and reverse primer were used. Each Ct value was measured using Lightcycler 480 (Roche) and each mean dCt was averaged from duplicate qRT-PCR reaction and performed in biological triplicate. Relative MYC RNA level (RT-qPCR primers MYC_exon3_fw and MYC_exon3_rv) was calculated by ddCt method compared to 18S and GAPDH controls (RT-qPCR primers GAPDH_fw, GAPDH_rv, 18S_fw, 18S_rv). P values were calculated using a Student's t-test by comparing the relative fold change of biological triplicates.
Approximately 0.6×10^6 COLO320-DM or COLO-320-HSR cells were plated in 6 well plates and cultured under standard conditions for 24 hours. Cells were then treated for 6 hours with one of the following: 500 nM JQ1 (Sigma-Aldrich SML1524), 500 nM MS645 (Sigma Aldrich SML2549), 1 μM THZ-1 (Selleck chemicals S7549), 20 μM SGC-SCP30 (Selleck chemicals S7256), 10 μM OICR-9429 (Selleck chemicals S7833), 50 μM MI-3 (Selleck chemicals S7619), 2 μM trichostatin A (Selleck chemicals S1045), or DMSO. […]

`OCCCCCCO` [1,6-hexanediol] was tested, and the “ecDNA hub clustering (interphase DNA FISH, autocorrelation g(r))” value (from here on “ecDNA hub clustering”) (ecDNA hubs in COLO320-DM; 1% 1,6-hexanediol) was “did not affect ecDNA hubs”.

With `Cc1sc2c(c1C)C(c1ccc(Cl)cc1)=N[C@@H](CC(=O)NCCCCCCCCCCNC(=O)C[C@@H]1N=C(c3ccc(Cl)cc3)c3c(sc(C)c3C)-n3c(C)nnc31)c1nnc(C)n1-2` [MS645] the “ecDNA hub clustering” value (ecDNA hubs in COLO320-DM; 500 nM) was “reduced ecDNA transcription and clustering similar to JQ1” and the “MYC mRNA level” value [1] was “reduced ecDNA transcription and clustering similar to JQ1”.

alpha-amanitin was tested, and the “ecDNA hub clustering” value (ecDNA hubs in COLO320-DM; 100 μg/mL alpha-amanitin) was “did not affect ecDNA hubs”.
